Data taken from patent publication US4687778A, “Anti-amnestic agent” (Kabushiki Kaisha Yakult Honsha, priority 1984, dated 1987).
Residues, ends and D or L forms follow the SMILES beside them. *: point of attachment. Cbz = O=C(OCc1ccccc1)*; Boc = CC(C)(C)OC(=O)*; CH2Cl = ClC*

Key:
Toxicity test (LD50) = settings: mouse, in vivo; ip, ICR male mice
Experimental: Using 4-weeks-old male ICR mice weighing 15-20 g, the value of LD50 was calculated by orally or intraperitoneally administering the prolinal derivatives to the mice and counting the deceased mice according to the conventional method.

[1] = test system: experimental amnestic rats; test: passive avoidance response of rats (scopolamine-induced amnesia), retention test; format: in vivo, male Wister SLC rat; settings: scopolamine 3 mg/kg i.p.
Experimental: The method of assay of the anti-amnestic action was carried out according to the method reported by A. Kubota et al. in Int. […] A passive avoidance chamber used in this test was surrounded with inside-visible transparent plastic plates and included an electrifiable grid floor (30 cm in length and 30 cm in width) capable of being derivered with an electric current of 1.7 mA in strength for electric foot shock and a platform (15 cm in length, 15 cm in width and 4 cm in height) placed at the right back corner thereof. A male Wister SLC rat (weighing 100-150 g) was placed in the passive avoidance chamber and, when he stepped down on the floor, the electric current was sent to the grid continuously until he went up on the platform. Repeating this test with another rat, the rats stayed on the platform for more than 15 seconds were taken out of the chamber, being regarded to have learned the situation. This electric shock was normally 2 or 3 times. To avoid any difference in the rats, those required 10 seconds for the first step-down and those stepped down on the floor at least 5 times were excluded. Among the learned or trained rats, the first control group of them were intraperitoneally administered with 0.5% CMC solution and the other groups of them were intraperitoneally administered with scopolamine hydrobromide in a dose of 3 mg/Kg to prepare experimental amnestic rats. The prolinal derivatives of the general formula to be tested were in each case intraperitoneally or orally administered to the rats in an amount shown in Table 1 or 2 one after completion of the learning. In each case, the polinal derivatives are used as having been dissolved or suspended in a 0.5% CMC solution.

[2] = test system: proline-specific endopeptidase (post-proline cleaving enzyme); settings: cited from earlier work

## CC(=O)NCC(=O)N1CCC[C@H]1C=O [Acetyl-glycyl-prolinal, acetyl-glycyl-prolinal] (Ac-Gly-Pro-aldehyde)
Toxicity test (LD50)
  LD50: > 1000 mg/kg
[1]; 1.3 mg/kg i.p. after training
  Retention Test Latency, 24 hr: 274.9 s
  Retention Test Latency, 48 hr: 198.6 s
[1]; 1.3 mg/kg p.o. after training
  Retention Test Latency, 24 hr: 221.6 s
  Retention Test Latency, 48 hr: 143.2 s

## CC(=O)N1CCC[C@H]1C(=O)N1CCC[C@H]1C=O [Acetyl-prolyl-prolinal, acetyl-prolyl-prolinal] (Ac-Pro-Pro-aldehyde)
Toxicity test (LD50)
  LD50: 767 mg/kg
[1]; 2.3 mg/kg i.p. after training
  Retention Test Latency, 24 hr: > 300.0 s
  Retention Test Latency, 48 hr: > 300.0 s
[1]; 2.3 mg/kg p.o. after training
  Retention Test Latency, 24 hr: 204.2 s
  Retention Test Latency, 48 hr: 177.4 s

## C[C@H](NC(=O)OCc1ccccc1)C(=O)N1CCC[C@H]1C=O [N--Benzyloxycarbonyl-alanyl-prolinal, N-benzyloxycarbonyl-alanyl-prolinal] (Cbz-Ala-Pro-aldehyde)
Toxicity test (LD50)
  LD50: 954 mg/kg
[1]; 2.0 mg/kg i.p. after training
  Retention Test Latency, 24 hr: 189.0 s
  Retention Test Latency, 48 hr: 203.4 s
[1]; 2.0 mg/kg p.o. after training
  Retention Test Latency, 24 hr: 165.4 s
  Retention Test Latency, 48 hr: 155.2 s

## O=C[C@@H]1CCCN1C(=O)CNC(=O)OCc1ccccc1 [N--Benzyloxycarbonyl-glycyl-prolinal, N-benzyloxycarbonyl-glycyl-prolinal] (Cbz-Gly-Pro-aldehyde)
Toxicity test (LD50)
  LD50: > 1000 mg/kg
[1]; 1.9 mg/kg i.p. after training
  Retention Test Latency, 24 hr: > 300.0 s
  Retention Test Latency, 48 hr: > 300.0 s
[1]; 1.9 mg/kg p.o. after training
  Retention Test Latency, 24 hr: 230.4 s
  Retention Test Latency, 48 hr: 175.5 s

## CC(C)C[C@H](NC(=O)OCc1ccccc1)C(=O)N1CCC[C@H]1C=O [N--Benzyloxycarbonyl-leucyl-prolinal, N-benzyloxycarbonyl-leucyl-prolinal] (Cbz-Leu-Pro-aldehyde)
Toxicity test (LD50)
  LD50: > 1000 mg/kg
[1]; 3.5 mg/kg i.p. after training
  Retention Test Latency, 24 hr: > 300.0 s
  Retention Test Latency, 48 hr: > 300.0 s
[1]; 3.5 mg/kg p.o. after training
  Retention Test Latency, 24 hr: 281.6 s
  Retention Test Latency, 48 hr: 219.5 s

## O=C[C@@H]1CCCN1C(=O)[C@@H]1CCCN1C(=O)OCc1ccccc1 [N--Benzyloxycarbonyl-prolyl-prolinal, N-benzyloxycarbonyl-prolyl-prolinal] (Cbz-Pro-Pro-aldehyde)
Toxicity test (LD50)
  LD50: > 1000 mg/kg

## CC(C)[C@H](NC(=O)OCc1ccccc1)C(=O)N1CCC[C@H]1C=O [N--Benzyloxycarbonyl-valyl-prolinal, N-benzyloxycarbonyl-valyl-prolinal] (Cbz-Val-Pro-aldehyde)
Toxicity test (LD50)
  LD50: 825 mg/kg
[1]; 2.2 mg/kg i.p. after training
  Retention Test Latency, 24 hr: > 300.0 s
  Retention Test Latency, 48 hr: > 300.0 s
[1]; 2.2 mg/kg p.o. after training
  Retention Test Latency, 24 hr: 254.8 s
  Retention Test Latency, 48 hr: 210.5 s

## O=C(NCC(=O)N1CCC[C@H]1C(=O)CCl)OCc1ccccc1 [N-benzyloxycarbonylglycyl-L-prolyl-chloromethane] (Cbz-Gly-Pro-CH2Cl)
[2]
  inhibitory action to the endopeptidase: strong inhibitory action

## C[C@H](NC(=O)OC(C)(C)C)C(=O)N1CCC[C@H]1C=O [t-Butyloxycarbonyl-alanyl-prolinal, t-butyloxycarbonyl-alanyl-prolinal] (Boc-Ala-Pro-aldehyde)
Toxicity test (LD50)
  LD50: 796 mg/kg
[1]; 1.8 mg/kg i.p. after training
  Retention Test Latency, 24 hr: 293.5 s
  Retention Test Latency, 48 hr: 250.4 s
[1]; 1.8 mg/kg p.o. after training
  Retention Test Latency, 24 hr: 239.8 s
  Retention Test Latency, 48 hr: 226.7 s

## CC(C)(C)OC(=O)N[C@@H](Cc1ccccc1)C(=O)N1CCC[C@H]1C=O [t-Butyloxycarbonyl-phenylalanyl-prolinal, t-butyloxycarbonyl-phenylalanyl-prolinal] (Boc-Phe-Pro-aldehyde)
Toxicity test (LD50)
  LD50: > 1000 mg/kg
[1]; 3.0 mg/kg i.p. after training
  Retention Test Latency, 24 hr: > 300.0 s
  Retention Test Latency, 48 hr: 264.3 s
[1]; 3.0 mg/kg p.o. after training
  Retention Test Latency, 24 hr: > 300.0 s
  Retention Test Latency, 48 hr: 250.2 s

## CC(C)(C)OC(=O)N[C@@H](CO)C(=O)N1CCC[C@H]1C=O [t-Butyloxycarbonyl-seryl-prolinal, t-butyloxycarbonyl-seryl-prolinal] (Boc-Ser-Pro-aldehyde)
Toxicity test (LD50)
  LD50: > 1000 mg/kg
[1]; 2.9 mg/kg i.p. after training
  Retention Test Latency, 24 hr: > 300.0 s
  Retention Test Latency, 48 hr: > 300.0 s
[1]; 2.9 mg/kg p.o. after training
  Retention Test Latency, 24 hr: 262.9 s
  Retention Test Latency, 48 hr: 185.2 s

## CC(C)(C)OC(=O)N[C@@H](Cc1ccc(O)cc1)C(=O)N1CCC[C@H]1C=O [t-Butyloxycarbonyl-tyrosyl-prolinal, t-butyloxycarbonyl-tyrosyl-prolinal] (Boc-Tyr-Pro-aldehyde)
Toxicity test (LD50)
  LD50: 933 mg/kg
[1]; 3.6 mg/kg i.p. after training
  Retention Test Latency, 24 hr: 250.8 s
  Retention Test Latency, 48 hr: 206.9 s
[1]; 3.6 mg/kg p.o. after training
  Retention Test Latency, 24 hr: 180.5 s
  Retention Test Latency, 48 hr: 192.1 s
